The text below walks through data of patent US20240408098A1, “COMBINATIONS OF KRAS G12D INHIBITORS WITH PI3Ka INHIBITORS AND RELATED METHODS OF TREATMENT” (MIRATI THERAPEUTICS, INC., priority 2021, published 2024).

Holding throughout (type): in vivo
The subject of test [1] is LS180 colon cancer cell line. Description: LS180 xenograft in nude/nude mice, average tumor volumes. The note with it: for Average Tumor Volumes: nude/nude mice, 15 mg/kg QD. As for the experimental part:
(§1) Immunocompromised nude/nude mice are inoculated in the right hind flank with cells harboring a KRas G12D mutation. When tumor volumes reach between 200-400 mm^3 in size, the mice are divided into four to five groups of 5 mice each. The first group is administered vehicle only. […] The fourth group is administered the single agent dose of the KRas G12D inhibitor using the twice daily for 2 sequential days followed by 5 days off schedule in combination with the single agent dose of Irinotecan. The treatment period varies from cell line to cell line but typically is between 15-22-days. Tumor volumes are measured using a caliper every two-three days and tumor volumes are calculated by the formula: […].
(§2) 20 to 25 nude/nude mice per study were inoculated in the right hind limb with 5×10^6 LS180 cells, AsPC-1 cells, GP2D cells, or Panc 02.03 cells. When tumor volumes reached ˜200 mm3-400 mm3 (study day 0) 5 mice in each of the groups were administered i.p. vehicle only (10% captisol in 50 mM citrate buffer pH 5.0), 30 mg/kg of Kras G12D inhibitor MRTX1133 (10% captisol in 50 mM citrate buffer, pH 5.0) either on the twice daily schedule or the twice daily for 2 consecutive days followed by 5 days off schedule, 15 mg/kg once daily of the BYL719 (0.5% methylcellulos) PI3Ka inhibitor, or 30 mg/kg of Kras G12D inhibitor on either schedule and BYL719. Tumor volumes, measured at pre-specified days, for the five mice per group were averaged and are reported for LS180, AsPC-1, GP2D, and Panc 02.03 in Tables 1, 2, 3, and 4, respectively.
25 nude/nude mice were inoculated with LS180 cells in the hind right flank. When the tumors reached ˜250 mm^3 five treatment groups were established with 5 mice per group.

In test [2] the test system is PANC0203 pancreatic cancer cell line. The experiment in a line: Panc 02.03 xenograft in nude/nude mice, average tumor volumes. The note with it: 15 mg/kg QD. As for the experimental part: as §1, §2
20 nude/nude mice were inoculated with Panc 02.03 cells in the hind right flank. When the tumors reached ˜300 mm^3 four treatment groups were established with 5 mice per group.

The subject of test [3] is AsPC-1 pancreatic cancer cell line. The experiment in a line: AsPC-1 xenograft in nude/nude mice, average tumor volumes. The note with it: for tumor growth inhibition: single agent; for Average Tumor Volumes: nude/nude mice, 15 mg/kg QD. The protocol: as §1, §2
30 nude/nude mice were inoculated with AsPC-1 cells in the hind right flank. When the tumors reached ˜300 mm^3 six treatment groups were established with 5 mice per group.

The test system of test [4] is GP2D colorectal cancer cell line. The experiment in a line: GP2D xenograft in nude/nude mice, average tumor volumes. As for the experimental part:
as §1
as §2, with “respectively. […]” for “respectively.”

With `Cc1nc(NC(=O)N2CCC[C@H]2C(N)=O)sc1-c1ccnc(C(C)(C)C(F)(F)F)c1` [BYL719, (2S)-N1-[4-Methyl-5-[2-(2,2,2-trifluoro-1,1-dimethylethyl)-4-pyridinyl]-2-thiazolyl]-1,2-pyrrolidinedicarboxamide], the tumor growth inhibition in test [1] (15 mg/kg once daily, single agent, Day 15) is 44%; in test [3] (15 mg/kg once daily, Day 34), 0%. Also, the “Average Tumor Volumes” value in test [1] (Study Day 1) was found to be 273.184 mm^3; in test [1] (Study Day 4) it was 501.45 mm^3; in test [1] (Study Day 8), 799.338 mm^3; in test [1] (Study Day 11) it was 1016.09 mm^3; in test [1] (Study Day 15), 1225.468 mm^3; in test [2] (Study Day 1), 330.188 mm^3. In addition, the “Average Tumor Volumes” value in test [2] (Study Day 4) was 341.414 mm^3; in test [2] (Study Day 8), 367.35 mm^3; in test [2] (Study Day 11), 487.664 mm^3; in test [2] (Study Day 15), 572.82 mm^3; in test [2] (Study Day 18), 680.306 mm^3; in test [2] (Study Day 22) it was 774.992 mm^3. Besides, the “Average Tumor Volumes” value in test [3] (Study Day 1) was determined as 331.29 mm^3; in test [3] (Study Day 6) it was 429.172 mm^3; in test [3] (Study Day 9) it was 473.138 mm^3; in test [3] (Study Day 13), 531.394 mm^3; in test [3] (Study Day 16), 580.446 mm^3; in test [3] (Study Day 20), 688.564 mm^3. Moreover, the “Average Tumor Volumes” value worked out at 742.98 mm^3 in test [3] (Study Day 23); 918.424 mm^3 in test [3] (Study Day 27); 1283 mm^3 in test [3] (Study Day 30); 1622 mm^3 in test [3] (Study Day 34); 307.604 mm^3 in test [4] (15 mg/kg QD, Study Day 1); 369.474 mm^3 in test [4] (15 mg/kg QD, Study Day 7). Also, the “Average Tumor Volumes” value in test [4] (15 mg/kg QD, Study Day 10) was determined as 395.68 mm^3; in test [4] (15 mg/kg QD, Study Day 14), 467.526 mm^3; in test [4] (15 mg/kg QD, Study Day 17), 546.962 mm^3; in test [4] (15 mg/kg QD, Study Day 21) it was 681.056 mm^3; in test [4] (15 mg/kg QD, Study Day 26), 901.144 mm^3; in test [4] (15 mg/kg QD, Study Day 28), 1053.732 mm^3. Also, the “Average Tumor Volumes” value is on record as 1102.87 mm^3 in test [4] (15 mg/kg QD, Study Day 31) and 1202.89 mm^3 in test [4] (15 mg/kg QD, Study Day 35).
As to `C#Cc1c(F)ccc2cc(O)cc(-c3ncc4c(N5C[C@H]6CC[C@@H](C5)N6)nc(OC[C@@]56CCCN5C[C@H](F)C6)nc4c3F)c12` [MRTX1133, 4-(4-((1R,5S)-3,8-diazabicyclo[3.2.1]octan-3-yl)-8-fluoro-2-(((2R,7aS)-2-fluorohexahydro-1H-pyrrolizin-7a-yl)methoxy)pyrido[4,3-d]pyrimidin-7-yl)-5-ethynyl-6-fluoronaphthalen-2-ol], the tumor growth inhibition in test [3] (30 mg/kg BID twice weekly, day 34) came out at 43%. The “Average Tumor Volumes” value turned out to be 300.778 mm^3 in test [4] (30 mg/kg BID Daily i.p., Study Day 1); 263.132 mm^3 in test [4] (30 mg/kg BID Daily i.p., Study Day 7); 237.628 mm^3 in test [4] (30 mg/kg BID Daily i.p., Study Day 10); 221.728 mm^3 in test [4] (30 mg/kg BID Daily i.p., Study Day 14); 221.788 mm^3 in test [4] (30 mg/kg BID Daily i.p., Study Day 17); 242.56 mm^3 in test [4] (30 mg/kg BID Daily i.p., Study Day 21). For the same molecule, the “Average Tumor Volumes” value in test [4] (30 mg/kg BID Daily i.p., Study Day 26) turned out to be 254.57 mm^3; in test [4] (30 mg/kg BID Daily i.p., Study Day 28), 307.03 mm^3; in test [4] (30 mg/kg BID Daily i.p., Study Day 31) it was 333.20 mm^3; in test [4] (30 mg/kg BID Daily i.p., Study Day 35), 358.75 mm^3.
